# From US11912693B2, “Compounds for modulating S1P1 activity and methods of using the same” (TREVENA, INC., priority 2017, dated 2024)
# Columns and labels:
# [1] = target: T1, human sphingosine-1-phosphate receptor 1 (S1P1) (Homo sapiens (Human), UniProt P21453); assay: β-Arrestin2 recruitment assay (PathHunter), S1P1 CHO-K1 cells; assay type: cell-based; settings: for hS1P1 B-arrestin2 pEC50: β-arrestin2 recruitment, S1P1 CHO-K1 cells; for Emax: CHO-K1, efficacy (SPAN) normalized to fingolimod, read-out: hS1P1 B-arrestin2 SPAN
# Outline: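 Enzyme-fragment complementation read-out: agonist-driven β-arrestin2 binding to ProLink-tagged human S1P1 in stable CHO-K1 cells restores β-galactosidase, measured 1 h at room temperature after a 60 min 37° C. compound incubation. Potency as pEC50, efficacy relative to fingolimod (SPAN).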
# Target sequence in this assay (P21453 whole entry, looked up, the tested form may be a part): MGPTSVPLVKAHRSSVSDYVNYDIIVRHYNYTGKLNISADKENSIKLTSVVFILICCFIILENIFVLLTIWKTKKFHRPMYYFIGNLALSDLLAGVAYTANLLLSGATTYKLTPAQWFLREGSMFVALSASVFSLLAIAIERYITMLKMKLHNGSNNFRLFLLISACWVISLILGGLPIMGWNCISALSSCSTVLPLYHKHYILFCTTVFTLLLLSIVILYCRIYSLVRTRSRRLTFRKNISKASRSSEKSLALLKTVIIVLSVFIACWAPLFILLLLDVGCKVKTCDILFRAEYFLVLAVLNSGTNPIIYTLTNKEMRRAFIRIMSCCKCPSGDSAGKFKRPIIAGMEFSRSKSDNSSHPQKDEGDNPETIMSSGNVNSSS
# Target sequence in this assay (P32121 whole entry partner, looked up, the tested form may be a part): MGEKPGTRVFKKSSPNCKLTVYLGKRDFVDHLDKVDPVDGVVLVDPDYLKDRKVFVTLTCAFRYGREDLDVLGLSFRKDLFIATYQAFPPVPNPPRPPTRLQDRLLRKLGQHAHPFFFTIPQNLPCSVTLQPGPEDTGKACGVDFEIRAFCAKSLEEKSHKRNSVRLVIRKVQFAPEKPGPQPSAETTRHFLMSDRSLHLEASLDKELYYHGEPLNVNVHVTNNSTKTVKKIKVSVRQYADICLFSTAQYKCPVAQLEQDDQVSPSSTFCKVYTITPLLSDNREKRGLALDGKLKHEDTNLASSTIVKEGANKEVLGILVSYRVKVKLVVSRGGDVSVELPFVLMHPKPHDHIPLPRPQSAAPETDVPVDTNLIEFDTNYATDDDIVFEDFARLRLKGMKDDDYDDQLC
# [2] = target: T1, human sphingosine-1-phosphate receptor 1 (S1P1); assay: Inhibition of cAMP production (HTRF cAMP HiRange), S1P1 CHO-K1 cells; assay type: cell-based; settings: for hS1P1 cAMP pEC50: inhibition of cAMP production, S1P1 CHO-K1 cells; for Emax: CHO-K1, efficacy (SPAN) normalized to fingolimod, read-out: hS1P1 cAMP SPAN
# Outline: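 CHO-K1 cells stably co-expressing human S1P1 (C-terminal Prolink tag) and EA-β-arrestin2 were grown in AssayComplete Media 6 at 37° C. and 5% CO2, plated, and incubated overnight. Agonist-driven inhibition of intracellular cAMP was read by TR-FRET with the HTRF cAMP HiRange kit on a PheraStar reader. Potency is pEC50, and efficacy (SPAN) is normalized to fingolimod.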
# Target sequence in this assay (P21453 whole entry, looked up, the tested form may be a part): as the sequence (P21453 whole entry, looked up, the tested form may be a part) above
Compound,hS1P1 B-arrestin2 pEC50 [1],hS1P1 cAMP pEC50 [2],Emax [1] [%],Emax [2] [%]
"CCC1(CC)CC(=O)c2cc(-c3nc(-c4ccc5[nH]c(=O)[nH]c5c4)no3)ccc2O1 [Compound 539, 5-(5-(2,2-diethyl-4-oxochroman-6-yl)-1,2,4-oxadiazol-3-yl)-1H-benzo[d]imidazol-2(3H)-one]",>5,>6.5,–,–
"Cc1nccnc1-c1nc(-c2ccc3c(c2)nnn3CC(C)(C)CO)no1 [Compound 540, 2,2-dimethyl-3-(5-(5-(3-methylpyrazin-2-yl)-1,2,4-oxadiazol-3-yl)-1H-benzo[d][1,2,3]triazol-1-yl)propan-1-ol]",<5,<6.5,–,–
"Cc1ccncc1-c1nc(-c2ccc3c(c2)nnn3CC(C)(C)CO)no1 [Compound 541, 2,2-dimethyl-3-(5-(5-(4-methylpyridin-3-yl)-1,2,4-oxadiazol-3-yl)-1H-benzo[d][1,2,3]triazol-1-yl)propan-1-ol]",<5,<6.5,–,–
"CC(C)n1nnc2cc(-c3cc(-c4ccccc4F)c[nH]3)ccc21 [Compound 542, 5-[4-(2-fluorophenyl)-1H-pyrrol-2-yl]-1-(propan-2-yl)-1H-1,2,3-benzotriazole]",>5,<6.5,–,–
"CC(C)n1nnc2cc(-c3c[nH]c(-c4ccccc4)c3)ccc21 [Compound 543, 5-(5-phenyl-1H-pyrrol-3-yl)-1-(propan-2-yl)-1H-1,2,3-benzotriazole]",<5,>6.5,< 75,< 75
"CC(C)n1nnc2cc(-c3cc(-c4ccccc4)n(C)c3)ccc21 [Compound 544, 5-(1-methyl-5-phenyl-1H-pyrrol-3-yl)-1-(propan-2-yl)-1H-1,2,3-benzotriazole]",>5,<6.5,–,–
"CCC1(CC)CC(=O)c2cc(-c3nc(-c4cncc(NS(C)(=O)=O)c4)no3)ccc2O1 [Compound 545, N-(5-(5-(2,2-diethyl-4-oxochroman-6-yl)-1,2,4-oxadiazol-3-yl)pyridin-3-yl)methanesulfonamide]",>5,>6.5,> 75,> 75
"CCC1(CC)CC(=O)c2cc(-c3nc(-c4cnccc4C)no3)ccc2O1 [Compound 549, 2,2-diethyl-6-(3-(4-methylpyridin-3-yl)-1,2,4-oxadiazol-5-yl)chroman-4-one]",>5,>6.5,–,–
"CCC1(CC)CC(=O)c2cc(-c3nc(-c4ccc(C)nc4)no3)ccc2O1 [Compound 550, 2,2-diethyl-6-(3-(6-methylpyridin-3-yl)-1,2,4-oxadiazol-5-yl)chroman-4-one]",>5,<6.5,–,–
"CCC1(CC)CC(=O)c2cc(-c3nc(-c4cncc(F)c4)no3)ccc2O1 [Compound 551, 2,2-diethyl-6-(3-(5-fluoropyridin-3-yl)-1,2,4-oxadiazol-5-yl)chroman-4-one]",>5,>6.5,–,–
"CCC1(CC)CC(=O)c2cc(-c3ncc(-c4ccnc(O)c4)cn3)ccc2O1 [Compound 552, 2,2-diethyl-6-(5-(2-hydroxypyridin-4-yl)pyrimidin-2-yl)chroman-4-one]",<5,<6.5,–,–
"CCC1(CC)CC(=O)c2cc(-c3nc(-c4cccc(OC)n4)no3)ccc2O1 [Compound 553, 2,2-diethyl-6-[3-(6-methoxypyridin-2-yl)-1,2,4-oxadiazol-5-yl]-3,4-dihydro-2H-1-benzopyran-4-one]",>5,<6.5,–,–
"CCC1(CC)CC(=O)c2cc(-c3nc(-c4ccsc4)no3)ccc2N1 [Compound 554, 2,2-diethyl-6-(3-(thiophen-3-yl)-1,2,4-oxadiazol-5-yl)-2,3-dihydroquinolin-4(1H)-one]",>5,>6.5,> 75,> 75
"CCC1(CC)CC(=O)c2cc(-c3nc(-c4ccnc(C(N)=O)c4)no3)ccc2O1 [Compound 555, 4-(5-(2,2-diethyl-4-oxochroman-6-yl)-1,2,4-oxadiazol-3-yl)picolinamide]",>5,>6.5,–,–
"CCC1(CC)CC(=O)c2cc(-c3nc(-c4ccnc(NS(C)(=O)=O)c4)no3)ccc2O1 [Compound 556, N-(4-(5-(2,2-diethyl-4-oxochroman-6-yl)-1,2,4-oxadiazol-3-yl)pyridin-2-yl)methanesulfonamide]",>5,>6.5,–,–
"CCC1(CC)CC(=O)c2cc(-c3nc(-c4cncc(C(F)(F)F)c4)no3)ccc2O1 [Compound 557, 2,2-diethyl-6-(3-(5-(trifluoromethyl)pyridin-3-yl)-1,2,4-oxadiazol-5-yl)chroman-4-one]",>5,<6.5,–,–
"CCC1(CC)CC(=O)c2cc(-c3noc(-c4cccnc4)n3)ccc2O1 [Compound 559, 2,2-diethyl-6-(5-(pyridin-3-yl)-1,2,4-oxadiazol-3-yl)chroman-4-one]",>5,>6.5,–,–
"Cc1nc2cc(-c3nnc(-c4ccc(NCC(F)F)c(C#N)c4)o3)ccc2[nH]1 [Compound 561, 2-[(2,2-difluoroethyl)amino]-5-[5-(2-methyl-1H-1,3-benzodiazol-5-yl)-1,3,4-oxadiazol-2-yl]benzonitrile]",>5,>6.5,–,–
"COc1ccccc1-c1cnc(-c2ccc3c(c2)nnn3C(C)C)nc1 [Compound 565, 1-isopropyl-5-(5-(2-methoxyphenyl)pyrimidin-2-yl)-1H-benzo[d][1,2,3]triazole]",>5,>6.5,–,–
"COc1ccccc1-c1c[nH]c(-c2ccc3c(c2)nnn3C(C)C)c1 [Compound 566, 5-[4-(2-methoxyphenyl)-1H-pyrrol-2-yl]-1-(propan-2-yl)-1H-1,2,3-benzotriazole]",<5,<6.5,–,–
"Cn1ccnc1-c1noc(-c2ccc3c(c2)nnn3CC(C)(C)O)n1 [Compound 567, 2-methyl-1-{5-[3-(1-methyl-1H-imidazol-2-yl)-1,2,4-oxadiazol-5-yl]-1H-1,2,3-benzotriazol-1-yl}propan-2-ol]",<5,<6.5,–,–
"CC(C)n1nnc2cc(-c3nc(-c4nccn4C)no3)ccc21 [Compound 569, 5-[3-(1-methyl-1H-imidazol-2-yl)-1,2,4-oxadiazol-5-yl]-1-(propan-2-yl)-1H-1,2,3-benzotriazole]",<5,<6.5,< 75,> 75
"CC(C)(O)Cn1nnc2cc(-c3nc(-c4cocn4)no3)ccc21 [Compound 570, 2-methyl-1-{5-[3-(1,3-oxazol-4-yl)-1,2,4-oxadiazol-5-yl]-1H-1,2,3-benzotriazol-1-yl}propan-2-ol]",<5,<6.5,< 75,< 75
"Cc1nc2cc(-c3nc(-c4ccc5c(c4)nnn5C(C)C)no3)ccc2[nH]1 [Compound 571, 5-[5-(2-methyl-1H-1,3-benzodiazol-5-yl)-1,2,4-oxadiazol-3-yl]-1-(propan-2-yl)-1H-1,2,3-benzotriazole]",>5,>6.5,–,–
"CC(C)Nc1ccc(-c2nnc(-c3ccc4c(c3)ncn4C)o2)cc1C#N [Compound 572, 5-[5-(1-methyl-1H-1,3-benzodiazol-5-yl)-1,3,4-oxadiazol-2-yl]-2-[(propan-2-yl)amino]benzonitrile]",<5,<6.5,–,–
"Cn1cnc2cc(-c3nnc(-c4ccc(NCC(F)F)c(C#N)c4)o3)ccc21 [Compound 573, 2-[(2,2-difluoroethyl)amino]-5-[5-(1-methyl-1H-1,3-benzodiazol-5-yl)-1,3,4-oxadiazol-2-yl]benzonitrile]",<5,<6.5,–,–
"CC(C)Nc1ccc(-c2nnc(-c3ccc4c(c3)ncn4CCO)o2)cc1C#N [Compound 574, 5-{5-[1-(2-hydroxyethyl)-1H-1,3-benzodiazol-5-yl]-1,3,4-oxadiazol-2-yl}-2-[(propan-2-yl)amino]benzonitrile]",<5,<6.5,–,–
"COc1ccccc1-c1nc(-c2ccc3c(c2)nnn3C(C)C)co1 [Compound 575, 5-[2-(2-methoxyphenyl)-1,3-oxazol-4-yl]-1-(propan-2-yl)-1H-1,2,3-benzotriazole]",>5,>6.5,> 75,> 75
"CC(C)n1nnc2cc(-c3noc(-c4ccccc4N)n3)ccc21 [Compound 576, 2-{3-[1-(propan-2-yl)-1H-1,2,3-benzotriazol-5-yl]-1,2,4-oxadiazol-5-yl}aniline]",>5,>6.5,< 75,> 75
"CC(C)(O)Cn1nnc2cc(-c3nc(-c4cccc5cc[nH]c45)no3)ccc21 [Compound 577, 1-{5-[3-(1H-indol-7-yl)-1,2,4-oxadiazol-5-yl]-1H-1,2,3-benzotriazol-1-yl}-2-methylpropan-2-ol]",>5,<6.5,< 75,< 75
